The record followed here is patent US9255072B2, “Pyrazole compounds and thiazole compounds as protein kinases inhibitors” (National Health Rsearch Institutes, priority 2011, dated 2016).

Where two headings read alike, the source gives them in different places. Bounds are passed on as bounds.

For one experiment, the target named is T1, wt-FLT3 (Homo sapiens, UniProt P36888).
T1 construct: FLT3 kinase catalytic domain (residues Y567˜S993); made in house; host or cells: Sf9 insect cells (baculovirus, pBac-PAK8-GST-FLT3-KD plasmid)
T1 sequence (P36888 567-993): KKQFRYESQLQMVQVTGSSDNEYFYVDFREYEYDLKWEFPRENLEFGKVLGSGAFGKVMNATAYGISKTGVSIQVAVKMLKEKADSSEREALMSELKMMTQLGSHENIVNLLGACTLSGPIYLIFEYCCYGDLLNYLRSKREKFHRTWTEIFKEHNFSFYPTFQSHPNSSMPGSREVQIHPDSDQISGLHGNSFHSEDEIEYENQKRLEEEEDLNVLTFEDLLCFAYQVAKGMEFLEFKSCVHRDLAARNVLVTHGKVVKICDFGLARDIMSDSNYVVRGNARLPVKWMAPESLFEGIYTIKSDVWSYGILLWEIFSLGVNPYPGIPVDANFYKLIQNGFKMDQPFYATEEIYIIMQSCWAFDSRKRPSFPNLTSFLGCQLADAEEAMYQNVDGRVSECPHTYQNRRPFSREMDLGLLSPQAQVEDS
As to the kind of experiment: FLT3 WT Kinase-Glo assay. Format: biochemical. Particulars: table of representative values; read-out: IC50 (nM) wt-FLT3. The gist of the method: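 GST-tagged wild-type FLT3 kinase domain (residues Y567–S993), expressed in Sf9 cells, was used. After the kinase reaction, remaining ATP was detected by Kinase-Glo Plus luminescence following 20 min at 25 °C.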

In the next experiment the test system is MOLM-13 cell. In words: MTS cell viability assay. It is filed as cell-based. Particulars: Homo sapiens, MOLM-13, 72 h, table of representative values. The text has this:
The leukemias cell lines MOLM-13, MV4:11, RSV4:11, MOLT-4, U937, and K562 were purchased from American Type Culture Collection (ATCC, Manassas, Va., USA). The non-leukemias cell lines HCC827, H1975, NCIH460, A431, Huh7, SF268, MCF-7, HCT-116, and normal human fetal fibroblast cell line Detriot 551 were purchased from American Type Culture Collection (ATCC, Manassas, Va., USA). All leukemias cell lines and HCC827, H1975, NCIH460, A431 were maintained in RPMI 1640 medium supplemented with 10% fetal bovine serum (FBS), 10 U/ml penicillin, and 10 µg/ml streptomycin at 37° C. and 5% CO2. The cell lines Huh7, SF268, MCF-7, and Detroit 551 were cultured in DMEM medium supplemented with 10% FBS, 0.01% nonessential amino acids, 10 U/ml penicillin, and 10 µg/ml streptomycin. HCT-116 were cultured in McCoy's 5A medium supplemented with 10% FBS, 0.01% nonessential amino acids, 10 U/ml penicillin, and 10 µg/ml streptomycin. To determine cell viability after drug treatment, assays were performed by seeding 10,000 cells (leukemias cell lines) or 2,500 cells (non-leukemias cell lines) per well in a 96-well culture plate. After 16 h, cells were then treated with vehicle or various concentrations of compound in medium for 72 h. Viable cells were quantitated using the MTS method (Promega, Madison, Wis., USA) according to the manufacturer's recommended protocol. The results were determined by measuring the absorbance at 490 nm using a plate reader (Victor2; PerkinElmer, Shelton, Conn., USA).

In another experiment the target is T2, VEGFR2 (Homo sapiens, UniProt P35968).
T2 construct: GST-VEGFR2 (residues V789-V1356); GST (N); made in house; host or cells: Sf9 insect cells
T2 sequence (P35968 789-1356): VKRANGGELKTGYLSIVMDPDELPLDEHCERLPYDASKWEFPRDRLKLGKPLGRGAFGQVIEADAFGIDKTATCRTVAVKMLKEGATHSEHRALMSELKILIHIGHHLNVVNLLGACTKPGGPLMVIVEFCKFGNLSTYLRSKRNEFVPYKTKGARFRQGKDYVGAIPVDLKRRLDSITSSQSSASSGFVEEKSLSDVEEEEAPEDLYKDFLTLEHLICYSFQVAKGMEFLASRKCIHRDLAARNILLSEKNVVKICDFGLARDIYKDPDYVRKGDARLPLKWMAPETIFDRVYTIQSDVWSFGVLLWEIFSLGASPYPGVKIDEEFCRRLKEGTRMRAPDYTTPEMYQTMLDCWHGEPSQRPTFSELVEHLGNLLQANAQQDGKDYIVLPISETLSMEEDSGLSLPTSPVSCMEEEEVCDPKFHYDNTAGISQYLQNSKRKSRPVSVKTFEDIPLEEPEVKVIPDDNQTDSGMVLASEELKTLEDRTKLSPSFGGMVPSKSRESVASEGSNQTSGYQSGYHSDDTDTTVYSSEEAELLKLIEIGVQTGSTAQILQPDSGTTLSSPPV
As to the kind of experiment: VEGFR2 Kinase-Glo kinase assay. It is filed as biochemical.

A further experiment concerns the target T3, Aurora A (Homo sapiens, UniProt O14965).
T3 construct: GST-Aurora A (residues S123-S401); GST (N); made in house; host or cells: Sf9 insect cells
T3 sequence (O14965 123-401): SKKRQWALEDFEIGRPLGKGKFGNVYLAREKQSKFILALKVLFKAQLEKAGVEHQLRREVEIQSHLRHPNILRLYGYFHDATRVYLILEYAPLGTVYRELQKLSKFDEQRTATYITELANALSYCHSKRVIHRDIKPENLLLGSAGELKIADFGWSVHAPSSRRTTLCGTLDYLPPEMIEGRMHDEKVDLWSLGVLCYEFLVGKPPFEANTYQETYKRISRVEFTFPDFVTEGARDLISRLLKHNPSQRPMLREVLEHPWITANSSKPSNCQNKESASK
As to the kind of experiment: Aurora kinase A Kinase-Glo kinase assay. Format: biochemical. The protocol:
The recombinant GST-Aurora A (residues S123-S401) containing kinase domain were expressed in Sf9 insect cells. The kinase assay were carried out in 96-well plates with tested compound in a final volume of 50 μl reaction at 37° C. for 90 minutes with following components: 50 mM Tris-HCl pH 7.4, 10 mM NaCl, 10 mM MgCl2, 0.01% BSA, 5 μM ATP, 1 mM DTT and 15 μM tetra(LRRASLG) peptide, and 150 ng recombinant Aurora A. Following incubation, 50 μl Kinase-Glo Plus Reagent (Promega, Madison, Wis., USA) was added to each well and the mixture was incubated at 25° C. for 20 min. A 70-μL aliquot of each reaction mixture was transferred to a black microtiter plate and the luminescence was measured on Wallac Vector 1420 multilabel counter (PerkinElmer, Shelton, Conn., USA).

The next experiment deals with T4, VEGFR1 (Homo sapiens, UniProt P17948).
T4 construct: GST-VEGFR1 (residues R781-I1338); GST (N); made in house; host or cells: Sf9 insect cells
T4 sequence (P17948 781-1338): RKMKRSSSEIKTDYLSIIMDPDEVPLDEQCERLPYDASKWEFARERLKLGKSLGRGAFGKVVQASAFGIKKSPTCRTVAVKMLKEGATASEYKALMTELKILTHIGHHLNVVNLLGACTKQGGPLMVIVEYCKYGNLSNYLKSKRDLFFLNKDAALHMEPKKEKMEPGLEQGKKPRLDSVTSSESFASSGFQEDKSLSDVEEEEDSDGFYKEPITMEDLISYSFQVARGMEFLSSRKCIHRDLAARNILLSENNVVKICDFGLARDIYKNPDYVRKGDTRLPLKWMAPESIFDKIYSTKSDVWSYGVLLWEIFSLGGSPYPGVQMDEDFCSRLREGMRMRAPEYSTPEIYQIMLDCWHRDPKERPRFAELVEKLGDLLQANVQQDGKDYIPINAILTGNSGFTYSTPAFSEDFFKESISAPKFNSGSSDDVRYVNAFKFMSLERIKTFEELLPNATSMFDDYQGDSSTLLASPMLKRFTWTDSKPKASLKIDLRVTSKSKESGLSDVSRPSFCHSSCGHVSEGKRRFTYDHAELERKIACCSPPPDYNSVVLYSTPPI
As to the kind of experiment: VEGFR1 Kinase-Glo kinase assay. Format: biochemical.

Turning to `CCc1cc(NC(=O)Nc2ccc(-c3cc(NC(=O)c4ccc(OCCN5CCOCC5)cc4)[nH]n3)cc2C)no1` [Compound 46b, N1-3-[4-([(5-ethyl-3-isoxazolyl)amino]carbonylamino)-3-methylphenyl]-1H-5-pyrazolyl-4-(2-morpholinoethoxy)benzamide], the IC50 was 27 nM on wt-FLT3; below 1 µM on VEGFR2 (VEGFR2 assay, 1 μM ATP, bound in μM, read-out: IC50); 0.151 µM on VEGFR2 (table of representative values, read-out: IC50 (nM) VEGFR2); below 200 nM on Aurora A (Aurora A assay, 5 μM ATP, bound in nM, read-out: IC50); below 1000 nM at Aurora A (Aurora A assay, 5 μM ATP, bound in μM, read-out: IC50); 22 nM on Aurora A (table of representative values, read-out: IC50 (nM) Aurora A). For the same molecule, the IC50 is below 1 µM on VEGFR1 (VEGFR1 assay, 1 μM ATP, bound in μM, read-out: IC50) and 0.29 µM at VEGFR1 (table of representative values, read-out: IC50 (nM) VEGFR1). Besides, in the experiment with MOLM-13 cell, growth was halved (GI50) at 1 nM.
